Results on 20 compounds are retold here after patent publication US12678446B2 (PFIZER INC., priority 2020, dated 2026).

The test system of series [1] is RSV (RSV A2 ECACC, 0709161v). The experiment in a line: RSV plaque reduction assay. As to conditions: human respiratory syncytial virus, HepG2, read-out: RSV A2 Plaque EC50, RSV A2 in Hep-G2 cells; mean of at least two experiments unless noted (n = 1). It counts as cell-based, respiratory syncytial virus. The procedure: Compounds w ere subjected to RSV plaque reduction assays according to the following protocol.
Hep-G2 cells (ECACC, 85011430) were passaged in flasks and seeded in 24-well plates in DMEM containing antibiotics and supplemented with 10% FBS. During inoculation and subsequent incubation, cells were cultured in DMEM containing 2% FBS. 100 plaque forming unit/well of RSV (RSV A2 ECACC, 0709161v) was mixed with eight serial dilutions of compound. Subsequently, 100 μL of the virus/compound mixtures was added to confluent Hep-G2 cell monolayers. The cells and virus/compound mixtures were incubated at 37° C. in a humidified 5% CO2 incubator for 2 h prior to removal of the inoculum and addition of 1 mL of overlay (DMEM containing 2% FBS and 0.8% CMC) containing compound dilutions. The cells and were incubated at 37° C. in a humidified 5% CO2 incubator for 2 days.
Cells were washed with PBS before adding 75/25% v/v EtOH MeOH, for 3 min. Fixative was removed and plates were washed with PBS. A pre-titrated amount of the primary antibody was added in 200 μL PBS/2% milk powder, and plates incubated for 90 min at 37° C. The plates were washed 3 times with PBS/0.05% Tween20 before addition of rabbit anti-goat horse radish peroxidase in 200 μL PBS/2% milk powder, and incubated for 1 h at 37° C. Following three wash steps with PBS/0.05% Tween20, 200 μL ready-to-use TrueBlue was added and plates were incubated at rt for 10-15 min before washing with water. After removal of water, plates were air-dried in the dark.
Plates were scanned and analysed using the Immunospot S6 Macro analyser, which is equipped with BioSpot analysis software for counting immunostained plaques (virospots). Plaque counts were used to calculate % infection relative to the mean of the plaque count in the virus control wells for RSV. […] Unless otherwise noted, plaque EC50 and cell toxicity CC50 values are a mean of at least two experiments and figures are rounded to whole units.
(In general: Plaques are areas of infected cells; plaque reduction assays count them against a control.)

A further series can be described thus: cell toxicity CC50. It counts as cell-based. The note with it: human; Hep-G2 cells; mean of at least two experiments; read-out: Cell Cytotoxicity CC50.

In the case of `O=C(N[C@H]1N=C(c2ccccc2)c2cccc(F)c2NC1=O)c1c(-c2ccccc2F)nn2c1OCCC2` [Example 21, N-[(3S)-9-fluoro-2-oxo-5-phenyl-1,3-dihydro-1,4-benzodiazepin-3-yl]-2-(2-fluorophenyl)-6,7-dihydro-5H-pyrazolo[5,1-b][1,3]oxazine-3-carboxamide], the concentration giving a half-maximal response (EC50) (as a rule, the concentration giving half of the maximal effect) in series [1] was 64 nM. Besides, the 50% cytotoxic concentration (CC50) (commonly the concentration giving 50% cytotoxicity) in the series “cell toxicity CC50” was greater than 25000 nM.

Regarding `O=C(N[C@H]1N=C(c2ccccc2)c2ccccc2NC1=O)c1c(-c2ccccc2)nn2c1OCCC2` [Example 22, N-[(3S)-2-oxo-5-phenyl-1,3-dihydro-1,4-benzodiazepin-3-yl]-2-phenyl-6,7-dihydro-5H-pyrazolo[5,1-b][1,3]oxazine-3-carboxamide], the EC50 in series [1] was 140 nM. The CC50 in the series “cell toxicity CC50” is greater than 25000 nM.

As for `O=C(N[C@H]1N=C(c2ccccc2)c2cccc(F)c2NC1=O)c1c(-c2ccccc2)nn2c1OCCC2` [Example 23, N-[(3S)-9-fluoro-2-oxo-5-phenyl-1,3-dihydro-1,4-benzodiazepin-3-yl]-2-phenyl-6,7-dihydro-5H-pyrazolo[5,1-b][1,3]oxazine-3-carboxamide], the half-maximal effective concentration (EC50) in series [1] worked out at 60 nM. For the same compound, in “cell toxicity CC50”, the 50% cytotoxic concentration (CC50) is greater than 25000 nM.

On to `C[C@@H]1CCn2nc(-c3ccccc3F)c(C(=O)N[C@H]3N=C(c4ccccc4)c4ccccc4NC3=O)c2O1` [Example 24, (5R)-2-(2-Fluorophenyl)-5-methyl-N-[(3S)-2-oxo-5-phenyl-1,3-dihydro-1,4-benzodiazepin-3-yl]-6,7-dihydro-5H-pyrazolo[5,1-b][1,3]oxazine-3-carboxamide], for which, in series [1], the 50% effective concentration (EC50) was 77 nM. The CC50 in the series “cell toxicity CC50” is greater than 25000 nM.

In the case of `C[C@H]1CCn2nc(-c3ccccc3F)c(C(=O)N[C@H]3N=C(c4ccccc4)c4ccccc4NC3=O)c2O1` [Example 26, (5S)-2-(2-Fluorophenyl)-5-methyl-N-[(3S)-2-oxo-5-phenyl-1,3-dihydro-1,4-benzodiazepin-3-yl]-6,7-dihydro-5H-pyrazolo[5,1-b][1,3]oxazine-3-carboxamide], the concentration giving a half-maximal response (EC50) in series [1] was determined as 43 nM. Moreover, in “cell toxicity CC50”, the CC50 is greater than 25000 nM.

As for `O=C(N[C@H]1N=C(c2ccccc2)c2ccccc2NC1=O)c1c(-c2ccccc2)nn2c1OCC1(COC1)C2` [Example 28, N-[(3S)-2-oxo-5-phenyl-1,3-dihydro-1,4-benzodiazepin-3-yl]-2-phenylspiro[5,7-dihydropyrazolo[5,1-b][1,3]oxazine-6,3′-oxetane]-3-carboxamide], in series [1], the EC50 is 76 nM. The CC50 in “cell toxicity CC50” was greater than 25000 nM.

For `O=C(N[C@H]1N=C(c2ccccc2)c2ccccc2NC1=O)c1c(-c2ccccc2F)nn2c1OCC1(COC1)C2` [Example 29], the EC50 in series [1] worked out at 78 nM. In addition, the CC50 in “cell toxicity CC50” was greater than 25000 nM.

As to `CC(C)Nc1ccc(-c2nn3c(c2C(=O)N[C@H]2N=C(c4ccccc4)c4cccc(F)c4NC2=O)O[C@H](C)CC3)c(F)n1` [Example 30, (5R)-N-[(3S)-9-fluoro-2-oxo-5-phenyl-1,3-dihydro-1,4-benzodiazepin-3-yl]-2-[2-fluoro-6-(propan-2-ylamino)pyridin-3-yl]-5-methyl-6,7-dihydro-5H-pyrazolo[5,1-b][1,3]oxazine-3-carboxamide], the half-maximal effective concentration (EC50) in series [1] amounted to 16 nM. Also, the CC50 in the series “cell toxicity CC50” is greater than 25000 nM.

With `CC(C)Nc1ccc(-c2nn3c(c2C(=O)N[C@H]2N=C(c4ccccc4)c4cccc(F)c4NC2=O)O[C@@H](C)CC3)c(F)n1` [Example 31, (5S)-N-[(3S)-9-fluoro-2-oxo-5-phenyl-1,3-dihydro-1,4-benzodiazepin-3-yl]-2-[2-fluoro-6-(propan-2-ylamino)pyridin-3-yl]-5-methyl-6,7-dihydro-5H-pyrazolo[5,1-b][1,3]oxazine-3-carboxamide], the EC50 in series [1] was found to be 11 nM. In addition, the CC50 in the series “cell toxicity CC50” is greater than 25000 nM.

`O=C(N[C@H]1N=C(c2ccccc2)c2cccc(F)c2NC1=O)c1c(-c2ccc(F)cc2F)nn2c1S(=O)(=O)CCC2` [Example 32, 2-(2,4-Difluorophenyl)-N-[(3S)-9-fluoro-2-oxo-5-phenyl-2,3-dihydro-1H-1,4-benzodiazepin-3-yl]-4,4-dioxo-5H,6H,7H-4λ^6-pyrazolo[3,2-b][1,3]thiazine-3-carboxamide]: the concentration giving a half-maximal response (EC50) in series [1] was 411 nM. Further, the CC50 in “cell toxicity CC50” was greater than 25000 nM.

Take `O=C(N[C@H]1N=C(c2ccccc2)c2cccc(F)c2NC1=O)c1c(-c2ccccc2F)nn2c1S(=O)(=O)CCC2` [Example 33, 2-(2-Fluorophenyl)-N-[(3S)-9-fluoro-2-oxo-5-phenyl-2,3-dihydro-1H-1,4-benzodiazepin-3-yl]-4,4-dioxo-5H,6H,7H-4λ^6-pyrazolo[3,2-b][1,3]thiazine-3-carboxamide]: the concentration for a half-maximal effect (EC50) in series [1] was 474 nM. The CC50 in the series “cell toxicity CC50” is greater than 25000 nM.

As to `O=C(N[C@H]1N=C(c2ccccc2)c2cccc(F)c2NC1=O)c1c(-c2ccc(F)cc2F)nn2c1SCCC2` [Example 34, 2-(2,4-Difluorophenyl)-N-[(3S)-9-fluoro-2-oxo-5-phenyl-2,3-dihydro-1H-1,4-benzodiazepin-3-yl]-5H,6H,7H-pyrazolo[3,2-b][1,3]thiazine-3-carboxamide], the EC50 in series [1] came to 143 nM. In the series “cell toxicity CC50”, the CC50 is greater than 25000 nM.

Turning to `O=C(N[C@H]1N=C(c2ccccc2)c2cccc(F)c2NC1=O)c1c(-c2ccccc2F)nn2c1SCCC2` [Example 35, N-[(3S)-9-Fluoro-2-oxo-5-phenyl-2,3-dihydro-1H-1,4-benzodiazepin-3-yl]-2-(2-fluorophenyl)-5H,6H,7H-pyrazolo[3,2-b][1,3]thiazine-3-carboxamide], the half-maximal effective concentration (EC50) in series [1] turned out to be 117 nM. Besides, in “cell toxicity CC50”, the CC50 is greater than 25000 nM.

As for `O=C(N[C@H]1N=C(c2ccccc2)c2ccccc2NC1=O)c1nn2c(c1-c1ccccc1F)OCCC2` [Example 36, 3-(2-Fluorophenyl)-N-[(3S)-2-oxo-5-phenyl-1,3-dihydro-1,4-benzodiazepin-3-yl]-6,7-dihydro-5H-pyrazolo[5,1-b][1,3]oxazine-2-carboxamide], the EC50 in series [1] was 444 nM. Also, in “cell toxicity CC50”, the cytotoxic concentration (CC50) is greater than 25000 nM.

`O=C(N[C@H]1N=C(c2ccccc2)c2ccccc2NC1=O)c1nn2c(c1-c1ccccc1F)OCC2` [Example 37, 7-(2-Fluorophenyl)-N-[(3S)-2-oxo-5-phenyl-1,3-dihydro-1,4-benzodiazepin-3-yl]-2,3-dihydropyrazolo[5,1-b][1,3]oxazole-6-carboxamide]: the EC50 in series [1] came out at 333 nM. The CC50 in “cell toxicity CC50” was greater than 25000 nM.

As for `O=C(N[C@H]1N=C(c2ccccc2)c2ccccc2NC1=O)c1nn2c(c1-c1ccc(NC3CC3)nc1F)OCCC2` [Example 38, 3-[6-(Cyclopropylamino)-2-fluoropyridin-3-yl]-N-[(3S)-2-oxo-5-phenyl-1,3-dihydro-1,4-benzodiazepin-3-yl]-6,7-dihydro-5H-pyrazolo[5,1-b][1,3]oxazine-2-carboxamide], in series [1], the half-maximal effective concentration (EC50) was 189 nM. Moreover, in “cell toxicity CC50”, the cytotoxic concentration (CC50) is greater than 25000 nM.

Take `O=C(N[C@H]1N=C(c2ccccc2)c2cccc(F)c2NC1=O)c1c(-c2ccc(NC3CC3)nc2F)nn2c1OCCC2` [Example 39, 2-[6-(Cyclopropylamino)-2-fluoropyridin-3-yl]-N-[(3S)-9-fluoro-2-oxo-5-phenyl-1,3-dihydro-1,4-benzodiazepin-3-yl]-6,7-dihydro-5H-pyrazolo[5,1-b][1,3]oxazine-3-carboxamide]: the EC50 in series [1] worked out at 40 nM. Also, in “cell toxicity CC50”, the 50% cytotoxic concentration (CC50) was greater than 25000 nM.

Consider `CC1(C)COc2c(C(=O)N[C@H]3N=C(c4ccccc4)c4ccccc4NC3=O)c(-c3ccccc3F)nn2C1` [Example 40, 2-(2-Fluorophenyl)-6,6-dimethyl-N-[(3S)-2-oxo-5-phenyl-1,3-dihydro-1,4-benzodiazepin-3-yl]-5,7-dihydropyrazolo[5,1-b][1,3]oxazine-3-carboxamide], for which the concentration for a half-maximal effect (EC50) in series [1] stood at 57 nM. For the same compound, the CC50 in the series “cell toxicity CC50” was greater than 25000 nM.

Regarding `CC1(C)COc2c(C(=O)N[C@H]3N=C(c4ccccc4)c4cccc(F)c4NC3=O)c(-c3ccccc3F)nn2C1` [Example 41, N-[(3S)-9-fluoro-2-oxo-5-phenyl-1,3-dihydro-1,4-benzodiazepin-3-yl]-2-(2-fluorophenyl)-6,6-dimethyl-5,7-dihydropyrazolo[5,1-b][1,3]oxazine-3-carboxamide], the EC50 in series [1] stood at 29 nM. In “cell toxicity CC50”, the CC50 is greater than 25000 nM.

With `Cc1cnc(F)c(-c2nn3c(c2C(=O)N[C@H]2N=C(c4ccccc4)c4ccccc4NC2=O)OCCC3)c1` [Example 42, 2-(2-Fluoro-5-methylpyridin-3-yl)-N-[(3S)-2-oxo-5-phenyl-1,3-dihydro-1,4-benzodiazepin-3-yl]-6,7-dihydro-5H-pyrazolo[5,1-b][1,3]oxazine-3-carboxamide], the half-maximal effective concentration (EC50) in series [1] was 124 nM. Moreover, the CC50 in the series “cell toxicity CC50” is greater than 25000 nM.
